The source of these data is patent publication US4665169A, “Carbapenem antibiotics” (Bristol-Myers Company, priority 1985, dated 1987).

In series [1] the test system is various Pseudomonas species. To be noted: prior art statement; cited from earlier work.
Series [2] can be described thus: Half-life in pH 7.4 biological buffer. Type of series: physicochemical. Particulars: 37° C. Here is the method:
To a cooled (5° C.) solution of (5R,6S)p-nitrobenzyl-6-(1^1 R-hydroxyethyl)-4R-methyl-3-(1-methyl-4-thiatetrahydrothiopyranium)-7-oxo- 1-azabicyclo[3.2.0]hept-2-ene-2-carboxyl-diphenylphosphate (2.40 g, 3.23 mmol) in tetrahydrofuran (240 mL) and 0.05M pH 7.0 phosphate buffer (240 mL) was added ether (240 mL) and 10% Pd/C (2.4 g). The mixture was hydrogenated in a Paar apparatus at 45 psi H2 at 15° C. for 1 hour. The solution was then filtered through glass fiber paper and the catalyst was washed with water (25 mL). The aqueous phase of the filtrate was washed with ether (2×100 mL) and purged under vacuum to remove any trace of organic solvent. The product was purified by reversed phase chromatography on μBondapak C-18 silica gel (100 g) using mixtures of acetonitrile-water as the eluent (10% CH3 CN--H2 O, quantity mL; 0%, 500 mL; 2%, 500 mL; 4%, 500 mL; 10%, 250 mL) to give 1.08 g of impure proudct. After lyophilization, this product and a 0.020 g sample from another experiment (starting from 0.067 mmol of the ester) was purified by hplc (hplc data re: C18 μBondapak, using 5% CH3 CN--H2 O at 4 mL/min, R. I. detector) to give 328 mg. […]

Series [3] deals with S. pneumoniae A-9585. In words: In vitro antibacterial activity, MIC by tube dilution. The class given is cell-based. To be noted: Streptococcus pneumoniae, overnight 37° C., Nutrient Broth.
Series [4] concerns S. pyogenes A-9604. The series is described as above. The class given is cell-based. Particulars: overnight 37° C., Nutrient Broth.
The test system of series [5] is S. faecalis A20688. Described as above. The class given is cell-based. To be noted: overnight 37° C., Nutrient Broth.
The subject of series [6] is S. aureus A-9537. Described as above. Particulars: overnight 37° C., Nutrient Broth. The class given is cell-based.
The subject of series [7] is S. aureus A-9537. In words: In vitro antibacterial activity, MIC by tube dilution, 50% serum. The class given is cell-based.
Series [8] concerns S. aureus (Penicillin-resistant) A-9606. Briefly: In vitro antibacterial activity, MIC by tube dilution. Type of series: cell-based. Particulars: Staphylococcus aureus, Nutrient Broth.
Series [9] deals with E. coli A15119. Described as above. The class given is cell-based. Particulars: Escherichia coli, overnight 37° C., Nutrient Broth.
The subject of series [10] is E. coli A20341-1. The series is described as above. The class given is cell-based. Particulars: Escherichia coli, overnight 37° C., Nutrient Broth.
Series [11] deals with K. pneumoniae A-9664. The description is as above. The class given is cell-based. Particulars: Klebsiella pneumoniae, A9664; Lot# 1794-20; overnight 37° C., Nutrient Broth.
Series [12] concerns K. pneumoniae A20468. The description is as above. To be noted: Klebsiella pneumoniae, A20468, Lot# 1794-27; overnight 37° C., Nutrient Broth. Type of series: cell-based.
In series [13] the test system is E. cloacae A-9659. The description is as above. To be noted: Enterobacter cloacae, A9659, Lot# 1794-27; overnight 37° C., Nutrient Broth. Type of series: cell-based.
In series [14] the test system is E. cloacae A-9656. The description is as above. The class given is cell-based. Particulars: Enterobacter cloacae, A9656, Lot# 1794-27; overnight 37° C., Nutrient Broth.
Series [15] concerns P. mirabilis A-9900. Described as above. Particulars: overnight 37° C., Nutrient Broth. The class given is cell-based.
Series [16] deals with P. vulgaris A21559. The description is as above. Type of series: cell-based. Particulars: overnight 37° C., Nutrient Broth.
The subject of series [17] is S. marcescens A20019. The series is described as above. Type of series: cell-based. To be noted: overnight 37° C., Nutrient Broth.
For series [18], the system named is P. aeruginosa A-9843A. The series is described as above. Particulars: overnight 37° C., Nutrient Broth. Type of series: cell-based.
Series [19] can be described thus: Blood levels in mice after intramuscular dosing. Type of series: in vivo. To be noted: mouse, im, 20 mg/kg; for AUC / Cmax / Tmax / half-life: 20 mg/kg i.m.; for concentration at 10 min: 10 min after 20 mg/kg i.m.; for concentration at 20 min: 20 min after 20 mg/kg i.m.; for concentration at 0.5 h: 30 min after 20 mg/kg i.m.; for concentration at 0.75 h: 45 min after 20 mg/kg i.m.; for concentration at 1 h: 60 min after 20 mg/kg i.m.; for concentration at 1.5 h: 90 min after 20 mg/kg i.m. Here is the method: For the determination of blood levels, two groups of mice were used. Each group consisted of four 20 g mice. Prior to dosing (5-10 min.) one of the groups received an i.p. injection of a dipeptidase inhibitor (BCH-1) at a level of 10 mg/kg.

Series [20] in a line: Urinary recovery in mice. Type of series: in vivo. To be noted: mouse, urine; for dose excreted at 3 h: 0-3 hr. Here is the method:
Two groups of mice were used for the urinary recovery evaluation. Each group consisted of four 20 g mice. Prior to dosing (5-10 minutes) one of the groups received an i.p. injestion of a dipeptidase inhibitor (BCH-1) at a level of 10 mg/kg. Following dosing, animals were placed in individual metabolism cages and the urine collected over ice at intervals of 0-3 and 3-6 hr. Animals were fasted overnight and a dextrose-amino acid solution was available ad libitum starting one hour before drug administration through six hours of urine collection. Urine samples were assayed for biological activity using sensitive assay plates containing B. subtilis ATCC 6633.

Series [21] deals with P. aeruginosa A9843a. In words: In vivo activity, 50% protective dose in infected mice. To be noted: Pseudomonas aeruginosa, im, 120 h, i.m., immediately and 2 hour post-infection, deaths over five days, read-out: PD50 (50% protective dose). The protocol: BHI broth (9.0 ml) was inoculated with a loopful of thawed stock suspension of P. aeruginosa A9843a and incubated for 18 hr at 37° C. A volume of 0.5 ml of the 18 hr culture was added to 20 ml BHI broth and incubated for 3 hr. with constant shaking at 37° C. A 1/10,000 dilution of the shaker culture was prepared in 0.4% hog gastric mucin. Mice were infected by the intraperitoneal route with 0.5 ml of the bacterial suspension (corresponding to 6.0×10^4 viable cells/mouse).
Each mouse received a volume of 0.2 ml intramuscularly. Deaths were recorded over a period of five days following infection at which time the PD50 for the compound was determined by estimation of the 50% end-point using the probit analysis plot.

The subject of series [22] is P. aeruginosa (Carbenicillin-resistant) A21213. To be noted: Lot# 1794-27, overnight 37° C., Nutrient Broth.
For series [23] the test system is unchanged. Briefly: microbe, parasite or virus in culture. Particulars: Pseudomonas aeruginosa.

Values after ≈ are worked out from the molar mass of the structure shown. Where two headings read alike, the source gives them in different places.

For the molecule `C[C@@H](O)[C@H]1C(=O)N2C(C(=O)O)=C(SCCN)C[C@H]12` [Thienamycin, thienamycin], the “activity against various Pseudomonas species” value in [1] is “notable activity”.
Regarding `C[C@@H](O)[C@H]1C(=O)N2C(C(=O)[O-])=C(SC3CC[S+](C)CC3)[C@H](C)[C@H]12` (stereo partly drawn) [Example 2, (5R,6S)-6-(1R-hydroxyethyl)-4R-methyl-3-(1-methyl-4-thiatetrahydrothiopyranium)-7-oxo-1-azabicyclo[3.2.0]-hept-2-ene-2-carboxylate], the half-life in [2] is 1800 min.
For the molecule `C[C@@H](O)[C@H]1C(=O)N2C(C(=O)[O-])=C(SC3CC[S+](C)CC3)C[C@H]12` (some centres unmarked) [Example 1], the MIC in series [3] (A9585, Lot# 1794-20) amounted to 1 ng/mL (≈ 0.00291 µM); in series [3] (A9585, Lot# 1794-27) it was 2 ng/mL (≈ 0.00582 µM); in series [4] (Lot# 1794-27) it was 4 ng/mL (≈ 0.0116 µM); in [4] (Streptococcus pyogenes, A9604, Lot# 1794-20, read-out: MIC) it was 4 ng/mL (≈ 0.0116 µM); in series [5] (Enterococcus faecalis, A20688, Lot# 1794-20, read-out: MIC) it was 0.5 µg/mL (≈ 1.46 µM); in series [5] (Lot# 1794-27), 0.5 µg/mL (≈ 1.46 µM). Also, the MIC turned out to be 8 ng/mL (≈ 0.0233 µM) in [6] (Lot# 1794-27); 8 ng/mL (≈ 0.0233 µM) in [6] (Staphylococcus aureus, A9537, Lot# 1794-20, read-out: MIC); 0.016 µg/mL (≈ 0.0466 µM) in series [7] (Lot# 1794-27, overnight 37° C.); 0.016 µg/mL (≈ 0.0466 µM) in series [7] (Staphylococcus aureus, A9537, Lot# 1794-20, overnight 37° C., read-out: MIC); 0.016 µg/mL (≈ 0.0466 µM) in [8] (Lot# 1794-20, overnight 37° C.); 0.03 µg/mL (≈ 0.0873 µM) in series [8] (Lot# 1794-27, overnight 37° C.). Moreover, the MIC in [9] (A15119, Lot# 1794-20) came out at 0.008 µg/mL (≈ 0.0233 µM); in series [9] (A15119, Lot# 1794-27), 0.016 µg/mL (≈ 0.0466 µM); in series [10] (A203411, Lot# 1794-20), 0.016 µg/mL (≈ 0.0466 µM); in series [10] (A203411, Lot# 1794-27), 0.03 µg/mL (≈ 0.0873 µM); in [11], 0.03 µg/mL (≈ 0.0873 µM); in series [12], 0.25 µg/mL (≈ 0.728 µM). The MIC was found to be 0.25 µg/mL (≈ 0.728 µM) in series [13]; 0.25 µg/mL (≈ 0.728 µM) in [14]; 0.016 µg/mL (≈ 0.0466 µM) in [15] (Lot# 1794-27); 0.016 µg/mL (≈ 0.0466 µM) in [15] (Proteus mirabilis, A9900, Lot# 1794-20, read-out: MIC); 0.016 µg/mL (≈ 0.0466 µM) in series [16] (Lot# 1794-27); 0.016 µg/mL (≈ 0.0466 µM) in series [16] (Proteus vulgaris, A21559, Lot# 1794-20, read-out: MIC). The MIC is 0.03 µg/mL (≈ 0.0873 µM) in series [17] (Lot# 1794-27); 0.03 µg/mL (≈ 0.0873 µM) in series [17] (Serratia marcescens, A20019, Lot# 1794-20, read-out: MIC); 2 µg/mL (≈ 5.82 µM) in [18] (Lot# 1794-27); 2 µg/mL (≈ 5.82 µM) in series [18] (Pseudomonas aeruginosa, A9843A, Lot# 1794-20, read-out: MIC); 0.25 µg/mL (≈ 0.728 µM) in [22]; 0.25 µg/mL (≈ 0.728 µM) in series [23]. Moreover, the figures for the AUC in series [19] (with BCH-1 10 mg/kg i.p.) and in series [19] (without BCH-1) were 10900 ng·h/mL and 6800 ng·h/mL, respectively. The Cmax came out at 16100 ng/mL in [19] (with BCH-1 10 mg/kg i.p.) and 15400 ng/mL in series [19] (without BCH-1). The Tmax in series [19] (with BCH-1 10 mg/kg i.p.) is 20 min; in series [19] (without BCH-1), 10 min. Moreover, the half-life in series [19] (with BCH-1 10 mg/kg i.p.) is 10 min; in [19] (without BCH-1) it was 9 min. Moreover, the concentration at 10 min in [19] (with BCH-1 10 mg/kg i.p.) and in series [19] (without BCH-1) was 15400 ng/mL throughout. In addition, the figures for the concentration at 20 min in [19] (with BCH-1 10 mg/kg i.p.) and in series [19] (without BCH-1) were 16100 ng/mL and 11400 ng/mL, respectively. Besides, the concentration at 0.5 h came out at 12600 ng/mL in series [19] (with BCH-1 10 mg/kg i.p.) and 7200 ng/mL in series [19] (without BCH-1). Further, the concentration at 0.75 h in series [19] (with BCH-1 10 mg/kg i.p.) turned out to be 7400 ng/mL; in series [19] (without BCH-1), 2900 ng/mL. Besides, the concentration at 1 h was found to be 3000 ng/mL in [19] (with BCH-1 10 mg/kg i.p.) and 700 ng/mL in series [19] (without BCH-1). Also, the concentration at 1.5 h in series [19] (with BCH-1 10 mg/kg i.p.) and in series [19] (without BCH-1) was 300 ng/mL throughout. Besides, the dose excreted at 3 h was 67% in [20] (with BCH-1 10 mg/kg i.p., read-out: Percent Recovered (urine)) and 44% in series [20] (without BCH-1, read-out: Percent Recovered (urine)). Further, the dose excreted at 6 h came out at 67.1% in series [20] (0-6 hr., with BCH-1 10 mg/kg i.p., read-out: Percent Recovered (urine)); 44.2% in series [20] (0-6 hr., without BCH-1, read-out: Percent Recovered (urine)); 0.1% in [20] (3-6 hr., with BCH-1 10 mg/kg i.p., read-out: Percent Recovered (urine)); 0.2% in series [20] (3-6 hr., without BCH-1, read-out: Percent Recovered (urine)). In addition, the ED50 in [21] was found to be 0.71 mg/kg.

By half-life is commonly meant the time in which the quantity being followed falls by half. A word on the AUC: it is the area under the concentration-time curve, a measure of exposure. A lower AUC goes with low exposure. For orientation: Cmax means the highest concentration seen after dosing. Usually Tmax stands for the time from dosing to the highest level.
